Source: patent publication US10336730B2, “Substituted glycine derived FXIA inhibitors” (BRISTOL-MYERS SQUIBB COMPANY, priority 2015, dated 2019)

What was measured:
Format in all cases: biochemical
[1] = target: T1, purified human Factor XIa (Homo sapiens, UniProt P03951); assay: Factor XIa enzyme inhibition assay (chromogenic substrate S-2366), Ki; details: substrate S-2366, pH 7.4
T1 construct: purchased Haematologic Technologies
How it was run: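 Purified human Factor XIa ([…] final) with chromogenic substrate S-2366 (0.0002-0.001 M) in 50 mM HEPES pH 7.4, 145 mM NaCl, 5 mM KCl, 0.1% PEG 8000. Velocities measured over 20-180 minutes with and without inhibitor; Ki derived assuming competitive inhibition, e.g. Ki=IC50/(1+S/Km).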

[2] = target: T2, purified human plasma kallikrein (Homo sapiens, UniProt P03952); assay: Plasma kallikrein enzyme inhibition assay (chromogenic substrate S-2302), Ki; details: substrate S-2302, pH 7.5
T2 construct: purchased Enzyme Research Laboratories
T2 sequence (P03952 391-638 limits assumed): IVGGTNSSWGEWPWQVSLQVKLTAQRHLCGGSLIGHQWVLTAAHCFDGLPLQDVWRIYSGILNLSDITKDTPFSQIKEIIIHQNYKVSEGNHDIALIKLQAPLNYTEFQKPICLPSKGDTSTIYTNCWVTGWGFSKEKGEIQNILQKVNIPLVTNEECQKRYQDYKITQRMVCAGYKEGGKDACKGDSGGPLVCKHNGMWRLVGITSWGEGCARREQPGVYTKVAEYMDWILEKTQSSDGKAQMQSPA
T2 sequence (P03952 20-390 partner limits assumed): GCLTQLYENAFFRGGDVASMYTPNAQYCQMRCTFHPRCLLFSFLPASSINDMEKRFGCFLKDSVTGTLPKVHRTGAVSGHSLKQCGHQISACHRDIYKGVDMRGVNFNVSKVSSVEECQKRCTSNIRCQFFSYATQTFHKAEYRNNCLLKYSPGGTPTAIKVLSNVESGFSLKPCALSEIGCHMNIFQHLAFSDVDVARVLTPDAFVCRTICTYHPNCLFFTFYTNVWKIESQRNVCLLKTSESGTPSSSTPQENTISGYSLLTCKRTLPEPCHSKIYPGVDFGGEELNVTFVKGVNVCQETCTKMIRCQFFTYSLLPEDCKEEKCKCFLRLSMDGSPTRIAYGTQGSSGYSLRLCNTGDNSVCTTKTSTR
Description: The effectiveness of compounds of the present invention as inhibitors of the coagulation Factors XIa, VIIa, IXa, Xa, XIIa, plasma kallikrein, thrombin, chemytrypsin or trypsin can be determined using a relevant purified serine protease, respectively, and an appropriate synthetic substrate. The rate of hydrolysis of the chromogenic or fluorogenic substrate by the relevant serine protease was measured both in the absence and presence of compounds of the present invention. […] A decrease in the rate of absorbance or fluorescence change in the presence of inhibitor is indicative of enzyme inhibition. Such methods are known to one skilled in the art. The results of this assay are expressed as the inhibitory constant, Ki.
Plasma kallikrein determinations were made in 0.1 M sodium phosphate buffer at a pH of 7.5 containing 0.1-0.2 M sodium chloride and 0.5% PEG 8000. Determinations were made using purified human plasma kallikrein (Enzyme Research Laboratories) at a final assay concentration of […] and the synthetic substrate S-2302 (H-(D)-Pro-Phe-Arg-pNA; CHROMOGENIX®) at a concentration of 0.00008-0.0004 M.
Values of Ki were determined by allowing the protease to react with the substrate in the presence of the inhibitor. Reactions were allowed to go for periods of 20-180 minutes (depending on the protease) and the velocities (rate of absorbance or fluorescence change versus time) were measured. The following relationships were used to calculate Ki values: (Vmax*S)/(Km+S) (vo−vs)/vs=I/(Ki*(1+S/Km)) for a competitive inhibitor with one binding site; or vs/vo=A+(B−A)/(1+(IC50/(I)^n)); and Ki=IC50/(1+S/Km) for a competitive inhibitor where: […]

[3] = system: citrated normal human plasma; assay: Activated Partial Thromboplastin Time (aPTT) plasma clotting assay; details: inhibitor concentration required to increase the clotting time by 1.5 times
Source text: The effectiveness of compounds of the present invention as inhibitors of coagulation can be determined using a standard or modified clotting assay. An increase in the plasma clotting time in the presence of inhibitor is indicative of anticoagulation. Relative clotting time is the clotting time in the presence of an inhibitor divided by the clotting time in the absence of an inhibitor. The results of this assay may be expressed as IC1.5× or IC2×, the inhibitor concentration required to increase the clotting time by 1.5 times or 2 times, respectively, relative to the clotting time in the absence of the inhibitor. The IC1.5× or IC2× is found by linear interpolation from relative clotting time versus inhibitor concentration plots using inhibitor concentrations that span the IC1.5× or IC2×.
Clotting times are determined using citrated normal human plasma as well as plasma obtained from a number of laboratory animal species (e.g., rat, or rabbit). A compound is diluted into plasma beginning with a 10 mM DMSO stock solution. The final concentration of DMSO is less than 2%. Plasma clotting assays are performed in an automated coagulation analyzer (Sysmex, Dade-Behring, Illinois). Similarly, clotting times can be determined from laboratory animal species or humans dosed with compounds of the invention.
Activated Partial Thromboplastin Time (aPTT) is determined using ACTIN® FSL (Dade-Behring, Illinois) following the directions in the package insert. Plasma (0.05 mL) is warmed to 37° C. for 1 minute. ACTIN® FSL (0.05 mL) is added to the plasma and incubated for an additional 2 to 5 minutes. Calcium chloride (25 mM, 0.05 mL) is added to the reaction to initiate coagulation. The clotting time is the time in seconds from the moment calcium chloride is added until a clot is detected.

T1 sequence (P03951 388-625 limits assumed): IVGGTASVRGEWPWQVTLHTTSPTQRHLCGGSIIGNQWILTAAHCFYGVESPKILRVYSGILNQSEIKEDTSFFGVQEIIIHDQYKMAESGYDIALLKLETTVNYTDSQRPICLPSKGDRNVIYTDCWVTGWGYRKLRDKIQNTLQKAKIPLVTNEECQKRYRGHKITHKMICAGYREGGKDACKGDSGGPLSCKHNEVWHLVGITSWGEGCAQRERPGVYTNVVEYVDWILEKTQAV
T1 sequence (P03951 19-387 partner limits assumed): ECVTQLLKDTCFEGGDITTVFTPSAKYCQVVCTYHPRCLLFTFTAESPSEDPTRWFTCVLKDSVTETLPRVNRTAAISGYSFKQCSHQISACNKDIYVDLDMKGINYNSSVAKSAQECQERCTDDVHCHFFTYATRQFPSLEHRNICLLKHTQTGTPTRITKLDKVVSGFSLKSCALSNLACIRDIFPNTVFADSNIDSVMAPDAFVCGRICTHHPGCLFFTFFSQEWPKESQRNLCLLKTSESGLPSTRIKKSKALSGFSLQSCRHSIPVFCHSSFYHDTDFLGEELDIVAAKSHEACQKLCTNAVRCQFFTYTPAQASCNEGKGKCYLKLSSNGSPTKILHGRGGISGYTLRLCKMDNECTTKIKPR

Compound | Ki [1] [nM] | Ki [2] [nM] | aPTT (IC1.5×) [3] [µM]
O=C(O)c1ccc(NC(=O)[C@H](Cc2ccccc2)n2cnc(-c3c(-n4cc(Cl)nn4)ccc(Cl)c3F)cc2=O)cc1 [Example 9, (S)-4-(2-(4-(3-chloro-6-(4-chloro-1H-1,2,3-triazol-1-yl)-2-fluorophenyl)-6-oxopyrimidin-1(6H)-yl)-3-phenylpropanamido)benzoic Acid] | 0.64 | 36 | 0.91
O=C(O)Cn1cc(NC(=O)[C@H](Cc2ccccc2)n2cnc(-c3cc(Cl)ccc3-n3cc(Cl)nn3)cc2=O)cn1 [Example 11, 2-{4-[(2S)-2-{4-[5-Chloro-2-(4-chloro-1H-1,2,3-triazol-1-yl)phenyl]-6-oxo-1,6-dihydropyrimidin-1-yl}-3-phenyl-propanamido]-1H-pyrazol-1-yl}acetic Acid] | 56.4 | 2100 | 
O=C(Nc1ccccc1)[C@H](Cc1ccccc1)n1cnc(-c2cc(Cl)ccc2-n2cc(Cl)nn2)cc1=O [Example 12, (S)-2-(4-(5-chloro-2-(4-chloro-1H-1,2,3-triazol-1-yl)phenyl)-6-oxopyrimidin-1(6H)-yl)-N,3-diphenylpropanamide] | 35.7 | 1480 | 
O=C(Nc1ccncc1)[C@H](Cc1ccccc1)n1cnc(-c2cc(Cl)ccc2-n2cc(Cl)nn2)cc1=O [Example 13, (S)-2-(4-(5-chloro-2-(4-chloro-1H-1,2,3-triazol-1-yl)phenyl)-6-oxopyrimidin-1(6H)-yl)-3-phenyl-N-(pyridin-4-yl)propanamide] | 43.6 | 984 | 
O=C(O)c1ccc(NC(=O)[C@H](Cc2ccccc2)n2cnc(-c3cc(Cl)ccc3-n3cc(C(F)(F)F)nn3)cc2=O)cc1 [Example 14, (S)-4-(2-(4-(5-chloro-2-(4-(trifluoromethyl)-1H-1,2,3-triazol-1-yl)phenyl)-6-oxopyrimidin-1(6H)-yl)-3-phenylpropanamido)benzoic Acid] | 3.1 | 239 | 1.85
O=C(O)c1ccc(NC(=O)[C@H](Cc2ccccc2)n2cnc(-c3cc(Cl)ccc3-n3cc(Cl)nn3)cc2=O)cc1 [Example 15, (S)-4-(2-(4-(5-chloro-2-(4-chloro-1H-1,2,3-triazol-1-yl)phenyl)-6-oxopyrimidin-1(6H)-yl)-3-phenylpropanamido)benzoic Acid] | 2.5 | 189 | 1.74
O=C(Nc1ccc2[nH]c(C(F)(F)F)nc2c1)[C@H](Cc1ccccc1)n1cnc(-c2cc(Cl)ccc2-n2cc(Cl)nn2)cc1=O [Example 16, (S)-2-(4-(5-chloro-2-(4-chloro-1H-1,2,3-triazol-1-yl)phenyl)-6-oxopyrimidin-1(6H)-yl)-3-phenyl-N-(2-(trifluoromethyl)-1H-benzo[d]imidazol-5-yl)propanamide] | 26 | 257 | 
O=C(Nc1ccc2cn[nH]c2c1)[C@H](Cc1ccccc1)n1cnc(-c2cc(Cl)ccc2-n2cc(Cl)nn2)cc1=O [Example 17, (S)-2-(4-(5-chloro-2-(4-chloro-1H-1,2,3-triazol-1-yl)phenyl)-6-oxopyrimidin-1(6H)-yl)-N-(1H-indazol-6-yl)-3-phenylpropanamide] | 16 | 166 | 17.6
O=C(Nc1ccc2c(c1)OCO2)[C@H](Cc1ccccc1)n1cnc(-c2cc(Cl)ccc2-n2cc(Cl)nn2)cc1=O [Example 18, (S)—N-(benzo[d][1,3]dioxol-5-yl)-2-(4-(5-chloro-2-(4-chloro-1H-1,2,3-triazol-1-yl)phenyl)-6-oxopyrimidin-1(6H)-yl)-3-phenylpropanamide] | 99.4 | 1480 | 
O=C(NCc1ccccc1)[C@H](Cc1ccccc1)n1cnc(-c2cc(Cl)ccc2-n2cc(Cl)nn2)cc1=O [Example 19, (S)—N-benzyl-2-(4-(5-chloro-2-(4-chloro-1H-1,2,3-triazol-1-yl)phenyl)-6-oxopyrimidin-1(6H)-yl)-3-phenylpropanamide] | 357 | 13300 | 
O=C1Cc2cc(NC(=O)[C@H](Cc3ccccc3)n3cnc(-c4cc(Cl)ccc4-n4cc(Cl)nn4)cc3=O)ccc2N1 [Example 23, (S)-2-(4-(5-chloro-2-(4-chloro-1H-1,2,3-triazol-1-yl)phenyl)-6-oxopyrimidin-1(6H)-yl)-N-(2-oxoindolin-5-yl)-3-phenylpropanamide] | 6.6 |  | 8.0
O=C(Nc1ccc2nccnc2c1)[C@H](Cc1ccccc1)n1cnc(-c2cc(Cl)ccc2-n2cc(Cl)nn2)cc1=O [Example 30, (S)-2-(4-(5-chloro-2-(4-chloro-1H-1,2,3-triazol-1-yl)phenyl)-6-oxopyrimidin-1(6H)-yl)-3-phenyl-N-(quinoxalin-6-yl)propanamide] | 6.44 |  | 15.2
O=C(Nc1ccc2c(=O)[nH]ccc2c1)[C@H](Cc1ccccc1)n1cnc(-c2cc(Cl)ccc2-n2cc(Cl)nn2)cc1=O [Example 96, (S)-2-(4-(5-chloro-2-(4-chloro-1H-1,2,3-triazol-1-yl)phenyl)-6-oxopyrimidin-1(6H)-yl)-N-(1-oxo-1,2-dihydroisoquinolin-6-yl)-3-phenylpropanamide] | 19.8 |  | 13.6
N#Cc1ccc(Cl)c(F)c1C1=CC(=O)N(C(Cc2ccccc2)C(=O)Nc2ccc(C(=O)O)cc2)CC1 (stereo not shown) [Example 130, 4-{2-[4-(3-Chloro-6-cyano-2-fluorophenyl)-6-oxo-1,2,3,6-tetrahydropyridin-1-yl]-3-phenylpropanamido}benzoic Acid] | 12.8 |  | 17.5
Cc1c(CC(C(=O)Nc2ccc(C(=O)O)cc2)N2CCC(c3c(F)ccc(Cl)c3F)=CC2=O)ccc2cn[nH]c12 (stereo not shown) [Example 135, 4-(2-(4-(3-chloro-2,6-difluorophenyl)-6-oxo-3,6-dihydropyridin-1(2H)-yl)-3-(7-methyl-1H-indazol-6-yl)propanamido)benzoic Acid] | 199 | 1870 | 1.74
O=C(O)c1ccc(NC(=O)[C@H](Cc2ccc(NC(=O)C3CC3)cc2)N2CCC(c3cc(Cl)ccc3-n3cc(Cl)nn3)=CC2=O)cc1 [Example 141, (S)-4-(2-(4-(5-chloro-2-(4-chloro-1H-1,2,3-triazol-1-yl)phenyl)-6-oxo-3,6-dihydropyridin-1(2H)-yl)-3-(4-(cyclopropanecarboxamido)phenyl)propanamido)benzoic Acid] | 0.92 |  | 2.05
O=C(O)c1ccc(NC(=O)[C@H](Cc2ccccc2)N2CCC(c3cc(Cl)ccc3-n3cc(Cl)nn3)=CC2=O)cc1 [Example 142, (S)-4-(2-(4-(5-chloro-2-(4-chloro-1H-1,2,3-triazol-1-yl)phenyl)-6-oxo-3,6-dihydropyridin-1(2H)-yl)-3-phenylpropanamido)benzoic Acid] | 1.73 |  | 2.39
O=C(O)c1ccc(NC(=O)[C@H](Cc2ccccc2)n2ncc(-c3cc(Cl)ccc3-n3cc(C(F)(F)F)nn3)cc2=O)cc1 [Example 143, 4-[(2S)-2-(4-{5-Chloro-2-[4-(trifluoromethyl)-1H-1,2,3-triazol-1-yl]phenyl}-6-oxo-1,6-dihydropyridazin-1-yl)-3-phenyl-propanamido]benzoic Acid] | 5.5 | 569 | 
O=C(O)c1ccc(NC(=O)[C@H](Cc2ccccc2)n2ncc(-c3c(F)ccc(Cl)c3F)cc2=O)cc1 [Example 144, 4-[(2S)-2-[4-(3-Chloro-2,6-difluorophenyl)-6-oxo-1,6-dihydropyridazin-1-yl]-3-phenylpropanamido]benzoic Acid] | 1030 | 6900 | 
